Test results as given in US20230028658A1, “EXPANDED DOSAGE REGIMENS FOR INTEGRIN INHIBITORS” (Pliant Therapeutics, Inc., priority 2021, published 2023).

Experiments:
[1] = test system: Type I Collagen gene Col1a1 expression; assay: Precision cut lung slices of mice under acute bleomycin exposure, Col1a1 expression; assay type: cell-based, Mice (C57BL/6); details: acute bleomycin PCLS, 3 days culture, normalized to DMSO; FIG. 5A
Protocol: Mice (C57BL/6) were administered 3 U/kg of bleomycin (Teva Pharmaceuticals; North Wales, Pa.) on day 0 via oropharyngeal aspiration while under anesthesia. On day 14, precision cut lung slices were obtained. Following euthanization, 2% low gelling temp agarose was injected into the mouse lungs via the trachea. […] The lobes were then subjected to precision slicing to obtain samples for culture using a microtome (Compresstome VF-300-0Z, Precisionary; Greenville, N.C.). Individual slices were distributed in a multiwell culture plate and cultured for 3 days under control (DMSO) and test compound conditions.

lung Col1a1 expression [2] = assay: Precision cut lung slices from human IPF explants, 3 days, Col1a1 expression; assay type: cell-based; details: human IPF PCLS, 3G9 ≥400 ng/mL, compound 5 179 nM, ALK5 inhibitor 1 μM, FIG. 6C
Description: Explanted lung tissue was obtained from human IPF subjects and inflated with agarose as described in the preceding examples. Biopsy cores were obtained from the agarose-inflated lung tissue. The biopsy cores were subjected to precision slicing to obtain several hundred μm thick. Individual slices were distributed in a multiwell culture plate and cultured for […] under control (DMSO) and test compound conditions. The viability of the slices over the course of culturing was confirmed by WST-1 assay of mitochondrial activity.

lung Col1a1 expression [3] = assay: Precision cut lung slices of mice under chronic bleomycin exposure, Col1a1 expression (Example B9); assay type: cell-based, Mice (C57BL/6); details: chronic bleomycin PCLS, 7 days culture, normalized to DMSO; FIG. 5B
Protocol: (§1) Mice (C57BL/6) were administered 3 U/kg of bleomycin (Teva Pharmaceuticals; North Wales, Pa.) on Day 0 and 1 U/kg of bleomycin on days 14, 28, 42 and 56 via oropharyngeal aspiration while under anesthesia. At day 70, 14 days after the final bleomycin insult, precision cut lung slices were obtained. Following euthanization, 2% low gelling temp agarose was injected into the mouse lungs via the trachea. […] The lobes were then subjected to precision slicing to obtain samples for culture using a microtome (Compresstome VF-300-0Z, Precisionary; Greenville, N.C.). Individual slices were distributed in a multiwell culture plate and cultured for 7 days under control (DMSO) and test compound conditions. The viability of the slices over the course of culturing was confirmed by WST-1 assay of mitochondrial activity.
During the culture period, slices in the control group were treated with DMSO and slices in the test group were treated with a DMSO solution of one of: the selective antibody αvβ6 inhibitor 3G9; the αvβ1-selective small molecule inhibitor; a combination of the selective antibody αvβ6 inhibitor 3G9 and the αvβ1-selective small molecule inhibitor; compound 5; and the small molecule ALK5 inhibitor. The selective αvβ1 and αvβ6 integrin inhibitors were analyzed at ≥their respective IC90 concentrations for inhibition of TGF-beta activation. […]

lung Col1a1 expression [4] = assay: Precision cut lung slices, chronic bleomycin, comparison with nintedanib and pirfenidone (Example B10); assay type: cell-based, Mice (C57BL/6); details: chronic bleomycin PCLS, 7 days culture, vs DMSO vehicle; FIG. 6A
Protocol: as §1, with “following” for “after”
During the culture period, slices in the control group were treated with DMSO and slices in the test group were treated with a DMSO solution of one of: compound 5; nintedanib; pirfenidone; a combination of nintedanib and compound 5; a combination of pirfenidone and compound 5; or the small molecule ALK5 inhibitor. Compound 5 was […] effective to equal or exceed its respective IC50 values at αvβ6 and αvβ1. […] Nintendanib and pirfenidone were analyzed at concentrations 10× their reported therapeutic concentrations.

COL1A1 expression = assay: PCLS from IPF lung tissue, seven days, COL1A1 expression; assay type: cell-based, human; details: PCLS from 5-7 IPF lung tissue samples, Compound 5 200 nM, nintedanib 75 nM, pirfenidone 50 μm, FIG. 6D
Protocol: PCLS from 5-7 idopathic pulmonary fibrosis (IPF) lung tissue samples were cultured for seven days with one of: DMSO; Compound 5 at 200 nM; nintedanib at 75 nM; pirfenidone at 50 μm; a combination of Compound 5 at 200 nM and nintedanib at 75 nM; a combination of Compound 5 at 200 nM and pirfenidone at 50 μm; or an Alk5 inhibitor at 1 μm. […] FIG. 6D is a bar graph showing relative expression of COL1A1 in precision cut lung slices (PCLS) from idopathic pulmonary fibrosis (IPF) lung tissue upon exposure to Compound 5, clinical standard of care compounds nintedanib (Nin) and pirfenidone (Pirf), and an ALK5 inhibitor, all versus DMSO control.
PCLS from a single IPF lung tissue sample were cultured for seven days with Compound 5 at concentrations of 200 pM, 2 nM, 60 nM, 200 nM, and 1 μM, along with 0.1% DMSO control and an Alk5 inhibitor at 1 μM. […] COL1A1 expression is also graphed for the PCLS in the presence of 0.1% DMSO control, and an Alk5 inhibitor at 1 μM.

[5] = test system: Type I Collagen gene Col1a1; assay: Col1a1 expression in lung slices versus DMSO control slices (FIG. 5A, 5B, 6A, 6C); assay type: cell-based; details: FIG. 6A; compared to the DMSO vehicle control slices
[6] = molecular target: recombinant human integrin αvβ6 (Homo sapiens, UniProt P06756+P18564); assay: Solid phase integrin αvβ6 binding assay; details: read-out: αvβ6 Inhibition IC50 (nM) - range
Chain of recombinant human integrin αvβ6 (P06756 31-992 limits assumed): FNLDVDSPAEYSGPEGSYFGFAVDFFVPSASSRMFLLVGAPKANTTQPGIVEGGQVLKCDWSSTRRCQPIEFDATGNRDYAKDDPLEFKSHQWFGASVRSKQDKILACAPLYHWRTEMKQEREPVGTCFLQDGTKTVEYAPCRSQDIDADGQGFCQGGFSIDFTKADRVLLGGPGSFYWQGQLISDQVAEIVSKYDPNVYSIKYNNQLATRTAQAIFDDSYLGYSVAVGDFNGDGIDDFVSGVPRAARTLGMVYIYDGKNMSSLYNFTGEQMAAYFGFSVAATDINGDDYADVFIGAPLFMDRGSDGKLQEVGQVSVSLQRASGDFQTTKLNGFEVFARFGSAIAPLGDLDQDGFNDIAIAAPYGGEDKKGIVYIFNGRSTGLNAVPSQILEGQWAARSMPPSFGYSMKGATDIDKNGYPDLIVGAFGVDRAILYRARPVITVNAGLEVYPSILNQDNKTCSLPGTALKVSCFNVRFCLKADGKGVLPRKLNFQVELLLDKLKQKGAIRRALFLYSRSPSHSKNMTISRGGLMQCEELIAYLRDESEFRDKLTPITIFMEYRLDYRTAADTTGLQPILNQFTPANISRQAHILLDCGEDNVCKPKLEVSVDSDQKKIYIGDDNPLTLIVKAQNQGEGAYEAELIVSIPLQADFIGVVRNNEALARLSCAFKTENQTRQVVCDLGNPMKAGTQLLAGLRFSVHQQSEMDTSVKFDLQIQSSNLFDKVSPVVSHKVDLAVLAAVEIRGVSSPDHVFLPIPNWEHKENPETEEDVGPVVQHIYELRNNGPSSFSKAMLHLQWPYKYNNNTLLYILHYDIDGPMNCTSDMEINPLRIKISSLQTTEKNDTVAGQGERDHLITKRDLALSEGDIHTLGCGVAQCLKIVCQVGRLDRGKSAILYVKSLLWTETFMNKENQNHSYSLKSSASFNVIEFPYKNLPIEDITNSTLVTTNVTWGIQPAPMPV
Chain of recombinant human integrin αvβ6 (P18564 22-707 limits assumed): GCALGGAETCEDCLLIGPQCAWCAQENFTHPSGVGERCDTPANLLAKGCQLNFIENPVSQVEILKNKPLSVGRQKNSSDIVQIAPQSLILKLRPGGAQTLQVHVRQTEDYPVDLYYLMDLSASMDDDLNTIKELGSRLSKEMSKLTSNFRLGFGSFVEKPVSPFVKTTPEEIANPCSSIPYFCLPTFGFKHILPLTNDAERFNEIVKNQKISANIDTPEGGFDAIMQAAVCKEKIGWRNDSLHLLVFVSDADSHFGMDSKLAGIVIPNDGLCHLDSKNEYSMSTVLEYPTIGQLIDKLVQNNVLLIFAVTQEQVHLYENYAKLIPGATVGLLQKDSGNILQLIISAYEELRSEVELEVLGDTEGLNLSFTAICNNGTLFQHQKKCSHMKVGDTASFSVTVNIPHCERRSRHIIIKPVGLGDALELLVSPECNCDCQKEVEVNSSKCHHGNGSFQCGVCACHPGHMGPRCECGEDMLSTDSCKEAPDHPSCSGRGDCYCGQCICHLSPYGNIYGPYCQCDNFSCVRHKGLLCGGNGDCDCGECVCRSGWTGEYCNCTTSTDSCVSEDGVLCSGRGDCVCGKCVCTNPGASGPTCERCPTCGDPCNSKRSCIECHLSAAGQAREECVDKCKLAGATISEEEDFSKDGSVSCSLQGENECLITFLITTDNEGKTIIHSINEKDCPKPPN
Protocol: Microplates were coated with recombinant human integrin αvβ6 (2 μg/mL) in PBS (100 μL/well 25° C., overnight). The coating solution was removed, washed with wash buffer (0.05% Tween 20; 0.5 mM MnCl2; in 1×TBS). The plate was blocked with 200 μL/well of Block Buffer (1% BSA; 5% sucrose; 0.5 mM MnCl2; in 1×TBS) at 37° C. for 2 h. Dilutions of testing compounds and recombinant TGFβ1 LAP (0.67 μg/mL) in binding buffer (0.05% BSA; 2.5% sucrose; 0.5 mM MnCl2; in 1×TBS) were added. The plate was incubated for 2 hours at 25° C., washed, and incubated for 1 hour with Biotin-Anti-hLAP. Bound antibody was detected by peroxidase-conjugated streptavidin. The IC50 values for testing compounds were calculated by a four-parameter logistic regression.
The compounds tested were compound samples prepared according to procedures described in the Synthetic Examples section, with the stereochemical purity as indicated in the Examples.

| SMILES | Type I Collagen gene Col1a1 expression [1] | lung slice Col1a1 expression (lung Col1a1 expression [4]) | reduced COL1A1 expression (COL1A1 expression) | lung Col1a1 expression [5] | also measured |
| --- | --- | --- | --- | --- | --- |
| CC(C)(C)c1cc(Br)cc(C(CC(=O)O)NC(=O)CNC(=O)c2cc(O)cc(NC3=NCC(O)CN3)c2)c1 [second pan-αv small molecule inhibitor, (3S)-N-[3-hydroxy-5-[(1,4,5,6-tetrahydro-5-hydroxy-2-pyrimidinyl)amino]benzoyl]glycyl-3-[3-bromo-5-(1,1-dimethylethyl)phenyl]-3-alanine] | reduced Type I Collagen gene Col1a1 expression | – | – | – | – |
| Cc1cccc(-c2n[nH]cc2-c2ccc(F)c(-c3cnn(CCO)c3)c2)n1 [small molecule ALK5 inhibitor, 4-[2-Fluoro-5-[3-(6-methyl-2-pyridinyl)-1H-pyrazol-4-yl]phenyl]-1H-pyrazole-1-ethanol, reference compound] | greatest decrease | substantial, statistically significant (p<0.0001 vs vehicle) decrease | – | – | lung Col1a1 expression (lung Col1a1 expression [2]): substantial, statistically significant; lung Col1a1 expression (lung Col1a1 expression [3]): greatest decrease |
| COC(=O)c1ccc2c(c1)NC(=O)/C2=C(\Nc1ccc(N(C)C(=O)CN2CCN(C)CC2)cc1)c1ccccc1 [nintedanib] | – | slight increase | did not significantly reduce | slight increase | – |
| Cc1ccc(=O)n(-c2ccccc2)c1 [pirfenidone] | – | slight increase | did not significantly reduce | slight increase | – |
| O=C(O)[C@H](CCN(CCCCc1ccc2c(n1)NCCC2)CCC(F)F)Nc1ncc(C2CC2)cn1 [Compound 135, (S)-2-((5-cyclopropylpyrimidin-2-yl)amino)-4-((3,3-difluoropropyl) (4-(5,6,7,8-tetrahydro-1,8-naphthyridin-2-yl)butyl)amino) butanoic acid] | – | – | – | – | IC50 [6]: 50 to 250 nM |
